Measured values reported in article PMC8779298, “The Campylobacter jejuni Response Regulator and Cyclic-Di-GMP Binding CbrR Is a Novel Regulator of Flagellar Motility” (Microorganisms, 2021).

Experiments:
CbrR [1] = test system: T1, CbrR; details: labelled compound (32P); 10 mM Tris pH 8.0, 5 mM MgCl2, 100 mM NaCl; active-site mutant
T1 construct: gene CJJ81176_0671
Target sequence in this assay (A0A0H3PJ41 whole entry E334A): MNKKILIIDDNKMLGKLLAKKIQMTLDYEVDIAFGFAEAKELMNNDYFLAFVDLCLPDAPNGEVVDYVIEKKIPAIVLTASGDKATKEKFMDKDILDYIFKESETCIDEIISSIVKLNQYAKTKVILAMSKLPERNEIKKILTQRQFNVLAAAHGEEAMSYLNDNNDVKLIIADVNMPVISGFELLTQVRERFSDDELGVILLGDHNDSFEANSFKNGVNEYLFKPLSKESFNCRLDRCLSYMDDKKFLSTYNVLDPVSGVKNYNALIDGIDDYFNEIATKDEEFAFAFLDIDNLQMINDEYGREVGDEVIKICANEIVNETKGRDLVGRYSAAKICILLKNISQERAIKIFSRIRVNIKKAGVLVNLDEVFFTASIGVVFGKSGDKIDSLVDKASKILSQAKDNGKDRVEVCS

CbrR [2] = test system: T1, CbrR; details: labelled compound (32P); 10 mM Tris pH 8.0, 5 mM MgCl2, 100 mM NaCl; I-site mutant
Target sequence in this assay (A0A0H3PJ41 whole entry K323A/G324A/R325A/D326A): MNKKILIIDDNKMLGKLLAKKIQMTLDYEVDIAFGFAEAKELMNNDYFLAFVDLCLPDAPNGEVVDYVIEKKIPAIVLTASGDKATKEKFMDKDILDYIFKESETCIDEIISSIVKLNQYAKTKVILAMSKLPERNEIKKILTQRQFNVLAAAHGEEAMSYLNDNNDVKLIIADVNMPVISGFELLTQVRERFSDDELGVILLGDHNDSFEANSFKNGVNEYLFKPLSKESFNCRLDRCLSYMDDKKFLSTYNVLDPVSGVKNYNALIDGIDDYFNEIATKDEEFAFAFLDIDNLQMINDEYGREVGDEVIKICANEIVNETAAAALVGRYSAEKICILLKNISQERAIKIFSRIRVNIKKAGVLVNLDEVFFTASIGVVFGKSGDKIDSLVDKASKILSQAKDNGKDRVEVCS

Row | SMILES | DRaCALA, nitrocellulose spot (CbrR [1]) | binding (CbrR [2])
1 | Nc1nc2c(ncn2[C@@H]2O[C@H](COP(=O)(O)OP(=O)(O)OP(=O)(O)O)[C@@H](O)[C@H]2O)c(=O)[nH]1 [GTP] | did not affect binding of either GTP or c-di-GMP | 
2 | Nc1nc2c(ncn2[C@@H]2O[C@@H]3COP(=O)(O)O[C@H]4[C@@H](O)[C@H](n5cnc6c(=O)[nH]c(N)nc65)O[C@@H]4COP(=O)(O)O[C@H]3[C@H]2O)c(=O)[nH]1 [c-di-GMP] | did not affect binding of either GTP or c-di-GMP | substitution of the I-site in the protein led to the loss of c-di-GMP binding
